Earlier results, collected in patent US20260114445A1, “STABLE ANTIMICROBIAL FORMULATION CONCENTRATE” (Kimberly-Clark Worldwide, Inc., priority 2020, published 2026).

Conditions: temperature not given

- water solubility: approximately 0.14%
Structure (SMILES): CCCCCCCC(=O)NO [Caprylhydroxamic Acid]
